Test results taken from PubChem BioAssay AID651809 (Broad Institute, 2012).
“And” between values parts separate entries of the source, which are not always exact repeats. Identical values can stand only once. The source made the active and inactive calls. No rule for the calls is given here.

What was measured:
[1] = Cholera quorum inducers, V. cholerae BH1578 lux reporter, luminescence, confirmatory dose response (AID 651809); settings: V. cholerae BH1578 lux reporter, luminescence, 6 h; at 35 µM (top of the series)
[2] = tested on: V. cholerae BH1578 lux reporter, luminescence, 6 h; experiment: as above

## O=C(Cc1ccc(-c2ccccc2)cc1)N1CCCC1
[1]
  activation: 0.018% (inactive)

## O=C(Cc1ccc(-c2ccccc2)cc1)N1CCCCC1
[1]
  activation: -0.022% (inactive)

## CC(C)n1nnc(NCc2ccc(N3CCCC3)cc2)n1
[1]
  activation: -0.029% (inactive)

## O=C(Cc1ccccn1)NC1CCCC1
[1]
  activation: 0.07% (inactive)

## CCn1nnnc1NCc1cccn1C
[1]
  activation: -0.015% (inactive)

## Cn1nnc(NCc2ccccc2)n1
[1]
  activation: -0.02% (inactive)

## O=C(Cc1cccc(F)c1)NC1CCCC1
[1]
  activation: 0.009% (inactive)

## CCC(CC)NC(=O)Cc1ccc(-c2ccccc2)cc1
[2]
  AC40: 4420 nM

## O=C(Cc1cccc(OC(F)(F)F)c1)NC1CCCC1
[1]
  activation: 1.1% (inactive)

## O=C(Cc1cccnc1)NC1CCCC1
[1]
  activation: -0.043% (inactive)

## CNC(=O)Cc1ccc(-c2ccccc2)cc1
[1]
  activation: 0.578% (inactive)

## CCNC(=O)Cc1ccc(-c2ccccc2)cc1
[2]
  AC40: > 35000 nM (inactive)

## Cn1nnc(NCc2ccc(N3CCCC3)cc2)n1
[1]
  activation: 0.034% (inactive)

## CCn1nnnc1NCc1ccc(C(F)(F)F)cc1
[2]
  AC40: 17800 nM

## O=C(Cc1ccc(-c2ccccc2)cc1)NC1CCC1
[2]
  AC40: 499 nM

## O=C(Cc1ccccc1Cl)NC1CCCC1
[1]
  activation: 0.002% (inactive)

## CCC(C)NC(=O)Cc1ccc(-c2ccccc2)cc1 (stereo not given)
[2]
  AC40: 5160 nM

## O=C(Cc1ccccc1)NC1CCCC1
[1]
  activation: -0.05% (inactive)

## CN(Cc1ccc(N2CCCC2)cc1)c1nnn(C)n1
[1]
  activation: -0.005% (inactive)

## CC(C)NC(=O)Cc1ccc(-c2ccccc2)cc1
[2]
  AC40: 1900 nM

## O=C(Cc1ccc(OC(F)(F)F)cc1)NC1CCCC1
[1]
  activation: 1.25% (inactive)

## Cn1nnnc1NCc1ccc(C(F)(F)F)cc1
[1]
  activation: 0.204% (inactive)

## O=C(Cc1ccccc1F)NC1CCCC1
[1]
  activation: 0.011% (inactive)

## CS(=O)(=O)c1ccc(CC(=O)NC2CCCC2)cc1
[1]
  activation: -0.009% (inactive)

## Cn1nnnc1NCc1ccc(N2CCCC2)cc1
[2]
  AC40: 1030 nM

## CC(C)c1ccc(CNc2nnn(C)n2)cc1
[1]
  activation: 0.033% (inactive)

## CC(C)c1ccc(CNc2nnnn2C)cc1
[2]
  AC40: 4170 nM

## CCn1nnc(NCc2ccc(N3CCCC3)cc2)n1
[1]
  activation: -0.042% (inactive) and -0.061% (inactive)

## O=C(Cc1ccc(-c2ccccc2)cc1)NCC1CCCC1
[1]
  activation: 0.056% (inactive)

## O=C(NCc1ccc(-c2ccccc2)cc1)C1CCCC1
[1]
  activation: 0.158% (inactive) and 0.134% (inactive)

## FC(F)(F)c1ccc(CNc2nn[nH]n2)cc1
[1]
  activation: -0.017% (inactive)

## O=C(Cc1cccc(-c2ccccc2)c1)NC1CCCC1
[1]
  activation: 18% (inactive)

## Cc1ccc(CC(=O)NC2CCCC2)cc1
[1]
  activation: 0.967% (inactive)

## c1cc(N2CCCC2)ccc1CNc1nn[nH]n1
[1]
  activation: -0.038% (inactive)

## CC(C)(C)OC(=O)N1CCC(NC(=O)Cc2ccc(-c3ccccc3)cc2)CC1
[1]
  activation: -0.022% (inactive)

## CCn1nnc(NCc2ccc(C(C)C)cc2)n1
[1]
  activation: 0.061% (inactive)

## CCCn1nnnc1NCc1ccc(C(C)C)cc1
[2]
  AC40: 529 nM

## O=C(Cc1ccc(-c2ccccc2)cc1)NC1CCCC1
[2]
  AC40: 890 nM and 645 nM

## CC(C)c1ccc(CNc2nn[nH]n2)cc1
[1]
  activation: 0.032% (inactive)

## O=C(Cc1cccc(Cl)c1)NC1CCCC1
[1]
  activation: 0.144% (inactive)

## O=C(Cc1ccccc1-c1ccccc1)NC1CCCC1
[1]
  activation: -0.016% (inactive)

## O=C(NC1CCCC1)Oc1ccc(-c2ccccc2)cc1
[1]
  activation: -0.045% (inactive)

## CCc1ccc(C(=O)Nc2nnnn2CC)cc1
[1]
  activation: -0.042% (inactive)

## CCn1nnnc1NCc1ccccc1
[1]
  activation: 0.115% (inactive)

## O=C(Cc1ccc2ccccc2c1)NC1CCCC1
[1]
  activation: 1.41% (inactive)

## O=C(Cc1ccc(-c2ccccc2)cc1)NC1CCOCC1
[2]
  AC40: 5660 nM

## CCn1nnnc1NCc1ccc(C(C)C)cc1
[2]
  AC40: 187 nM

## O=C(O)Cc1ccc(-c2ccccc2)cc1
[1]
  activation: 0.008% (inactive)

## c1ccc(-c2ccc(CCNC3CCCC3)cc2)cc1
[1]
  activation: -0.024% (inactive)

## O=C(Cc1ccc(C(F)(F)F)cc1)NC1CCCC1
[1]
  activation: 0.008% (inactive)

## O=C(Cc1ccc(-c2ccccc2)cc1)N1CCC(F)(F)CC1
[1]
  activation: -0.007% (inactive)

## N#Cc1cccc(CC(=O)NC2CCCC2)c1
[1]
  activation: -0.04% (inactive)

## O=C(Cc1ccc(F)cc1)NC1CCCC1
[1]
  activation: 0.012% (inactive)

## Cc1ccccc1CC(=O)NC1CCCC1
[2]
  AC40: 7560 nM

## O=C(Cc1ccc(-c2ccccc2)cc1)NCc1ccccc1
[1]
  activation: 0.004% (inactive)

## COc1cccc(CC(=O)NC2CCCC2)c1
[1]
  activation: -0.014% (inactive)

## O=C(Cc1ccccc1OC(F)(F)F)NC1CCCC1
[1]
  activation: 0.011% (inactive)

## CCn1nnnc1NC(=O)c1ccc(N2CCCC2)cc1
[1]
  activation: 0.669% (inactive)

## O=C(Nc1nnc(-c2ccc3c(c2)OCCO3)o1)C1CCCCC1
[2]
  AC40: 2290 nM

## O=C(Cc1ccc(-c2ccccc2)cc1)NC1CCCCC1
[1]
  activation: 10.4% (inactive)

## O=C(Cc1ccccc1C(F)(F)F)NC1CCCC1
[1]
  activation: 0.015% (inactive)

## O=C(Cc1ccncc1)NC1CCCC1
[1]
  activation: 0.026% (inactive)

## O=C(Cc1ccc(-c2ccccc2)cc1)N1CC(F)(F)C1
[1]
  activation: 1.11% (inactive)

## COc1ccccc1CC(=O)NC1CCCC1
[1]
  activation: 0.627% (inactive)

## O=C(Cc1ccc(-c2ccccc2)cc1)Nc1ccccc1
[1]
  activation: 0.038% (inactive)

## O=C(Cc1ccc(-c2cccnc2)cc1)NC1CCCC1
[1]
  activation: 15.8% (inactive)

## O=C(Cc1ccc(-c2ccccc2)cc1)NC1CCNCC1
[1]
  activation: 0.085% (inactive)

## CCn1nnnc1NCc1ccc(N2CCCC2)cc1
[2]
  AC40: 149 nM and < 135 nM

## O=C(CCc1ccc(-c2ccccc2)cc1)NC1CCCC1
[1]
  activation: -0.057% (inactive)

## CN1CCN(C(=O)Cc2ccc(-c3ccccc3)cc2)CC1
[1]
  activation: -0.018% (inactive)

## CS(=O)(=O)c1cccc(CC(=O)NC2CCCC2)c1
[1]
  activation: 0.049% (inactive)

## O=C(Nc1ccc(-c2ccccc2)cc1)NC1CCCC1
[1]
  activation: 0.069% (inactive)

## CN(C(=O)Cc1ccc(-c2ccccc2)cc1)C1CCCC1
[1]
  activation: 0.648% (inactive)

## CN(C)C(=O)Cc1ccc(-c2ccccc2)cc1
[1]
  activation: 0.185% (inactive)

## O=C(Cc1ccc(-c2ccncc2)cc1)NC1CCCC1
[1]
  activation: 1.61% (inactive)

## CC(C)n1nnnc1NCc1ccc(N2CCCC2)cc1
[1]
  activation: 133% (inactive)

## COc1ccc(CC(=O)NC2CCCC2)cc1
[1]
  activation: 2.06% (inactive)

## Cn1nnc(NCc2ccc(C(F)(F)F)cc2)n1
[1]
  activation: 1.48% (inactive)

## CN1CCC(NC(=O)Cc2ccc(-c3ccccc3)cc2)CC1
[1]
  activation: 3.34% (inactive)

## O=C(Cc1ccc(-c2ccccn2)cc1)NC1CCCC1
[2]
  AC40: 10500 nM

## O=C(Cc1cccc(C(F)(F)F)c1)NC1CCCC1
[1]
  activation: 0.024% (inactive)

## O=C(Cc1ccccc1I)NC1CCCC1
[1]
  activation: 0.012% (inactive)

## N#Cc1ccc(CC(=O)NC2CCCC2)cc1
[1]
  activation: -0.056% (inactive)

## O=C(Cc1ccc(-c2ccccc2)cc1)N1CCOCC1
[1]
  activation: 0.215% (inactive)

## CCn1nnc(NCc2ccccc2)n1
[1]
  activation: 0.35% (inactive)

## CC(C(=O)NC1CCCC1)c1ccc(-c2ccccc2)cc1 (stereo not given)
[1]
  activation: -0.069% (inactive)

## CN(Cc1ccc(N2CCCC2)cc1)c1nnnn1C
[1]
  activation: 14.6% (inactive)

## CCn1nnc(NCc2ccc(C(F)(F)F)cc2)n1
[1]
  activation: -0.033% (inactive)

## Cc1ccc2cc3c(NC(=O)c4ccco4)nn(C)c3nc2c1
[2]
  AC40: 10400 nM

## O=C(Cc1ccc(Cl)cc1)NC1CCCC1
[1]
  activation: 0.645% (inactive)

## c1ccc(CNc2nn[nH]n2)cc1
[1]
  activation: 0.04% (inactive)

## Cc1cccc(CC(=O)NC2CCCC2)c1
[1]
  activation: 0.44% (inactive)

## CCN(Cc1ccc(N2CCCC2)cc1)c1nnnn1CC
[1]
  activation: 1.22% (inactive)

## Cn1nnnc1NCc1ccccc1
[1]
  activation: -0.011% (inactive)

## O=C(Cc1ccc(-c2ccccc2)cc1)N1CCC1
[1]
  activation: 1.77% (inactive)
